One may read the EC50 as the concentration at which the effect is half-maximal.

This is an account of results in PMC8724838 (Biomolecules & Therapeutics, 2021).

Format in all cases: cell-based
Assay [1] has as its target T1, Mrgpra1 (Mus musculus, UniProt Q91WW5).
T1 sequence (Q91WW5 1-304): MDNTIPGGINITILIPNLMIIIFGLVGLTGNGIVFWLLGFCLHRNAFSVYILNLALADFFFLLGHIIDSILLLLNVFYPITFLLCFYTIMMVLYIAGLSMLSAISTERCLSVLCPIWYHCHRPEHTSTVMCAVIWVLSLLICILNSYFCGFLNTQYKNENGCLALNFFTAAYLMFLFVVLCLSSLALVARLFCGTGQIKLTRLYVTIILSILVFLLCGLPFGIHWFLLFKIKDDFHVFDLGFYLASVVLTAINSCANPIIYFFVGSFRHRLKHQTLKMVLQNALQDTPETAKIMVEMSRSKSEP
Description: calcium imaging, […] DCA in Mrgpra1-HEK293T cells.

For assay [2], the target named is T1, Mrgpra1. Description: calcium imaging.
The target in assay [3] is T2, Mrgprb2 (Mus musculus, UniProt Q3KNA1).
T2 sequence (Q3KNA1 1-338): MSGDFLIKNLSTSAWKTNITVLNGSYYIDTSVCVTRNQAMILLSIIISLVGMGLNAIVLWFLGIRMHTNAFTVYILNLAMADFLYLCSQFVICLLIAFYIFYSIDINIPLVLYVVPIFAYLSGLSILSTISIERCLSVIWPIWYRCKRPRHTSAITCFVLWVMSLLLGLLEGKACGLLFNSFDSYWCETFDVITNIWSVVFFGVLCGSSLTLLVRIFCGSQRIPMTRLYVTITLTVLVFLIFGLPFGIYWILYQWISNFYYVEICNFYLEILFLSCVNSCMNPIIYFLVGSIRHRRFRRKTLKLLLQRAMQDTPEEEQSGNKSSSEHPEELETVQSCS
Briefly: calcium imaging.

For the compound `C[C@H](CCC(=O)O)[C@H]1CC[C@H]2[C@@H]3CC[C@@H]4C[C@H](O)CC[C@]4(C)[C@H]3C[C@H](O)[C@]12C` [DCA, deoxycholic acid], the “calcium imaging, 100 μM DCA in Mrgpra1-HEK293T cells (weaker than LCA)” value in assay [1] was “also elevated the fluorescence intensity in Mrgpra1-HEK293T, but to a lesser extent (Fig. 1B, 1C)”.

For `C[C@H](CCC(=O)O)[C@H]1CC[C@H]2[C@@H]3CC[C@@H]4C[C@H](O)CC[C@]4(C)[C@H]3CC[C@]12C` [LCA, 3α-hydroxy-5β-cholan-24-oic acid], the EC50 came out at 290 µM in assay [2] and 183 µM in assay [3].
